Source: the supplement of paper PMC10307832

How the values were obtained:
Assay in all cases: relative viability (nuclei count vs DMSO), 5 days (fraction); higher = more cells survive
[1] = compound: CC[C@H](CO)Nc1nc(NCc2ccccc2)c2ncn(C(C)C)c2n1 [Seliciclib] + COc1cccc2cc(-c3nc([C@H]4CC[C@H](C(=O)O)CC4)n4ncnc(N)c34)[nH]c12 [OSI-027] (partner 0.5 µM)
In short: (§1)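 A single step with final 0.05% Triton X-100, 1% formaldehyde and 1 ug/ml Hoechst fixed the cells and stained nuclei 5 days after treatment. Lung cancer cell lines in 1536-well plates had been treated by pin tool the day after seeding with one drug alone or a fixed anchor-drug dose plus five library-drug doses (not always all listed) in √10 steps, and nuclei were counted on 4× images. Relative viability is the ratio of nuclei in treated wells to nuclei in vehicle wells, taken as the median of duplicate plates.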

[2] = compound: CC[C@H](CO)Nc1nc(NCc2ccccc2)c2ncn(C(C)C)c2n1 [Seliciclib] + Cc1cc(Nc2cc(N3CCN(C)CC3)nc(Sc3ccc(NC(=O)C4CC4)cc3)n2)n[nH]1 [Tozasertib] (partner 0.1 µM)
In short: as §1

[3] = compound: CC[C@H](CO)Nc1nc(NCc2ccccc2)c2ncn(C(C)C)c2n1 [Seliciclib] + C[C@]1(O)C[C@@H](c2nc(-c3ccc4ccc(-c5ccccc5)nc4c3)c3c(N)nccn32)C1 [Linsitinib] (partner 1 µM)
In short: as §1

[4] = compound: CC[C@H](CO)Nc1nc(NCc2ccccc2)c2ncn(C(C)C)c2n1 [Seliciclib] + C[C@@H](Oc1cc(-c2cnn(C3CCNCC3)c2)cnc1N)c1c(Cl)ccc(F)c1Cl [Crizotinib] (partner 1 µM)
In short: as §1

Cell Line | relative viability ([1]; first compound 0.08 µM) | relative viability ([1]; first compound 0.253 µM) | relative viability ([1]; first compound 0.8 µM) | relative viability ([1]; first compound 2.53 µM) | relative viability ([1]; first compound 8 µM) | relative viability ([2]; first compound 0.08 µM) | relative viability ([2]; first compound 0.253 µM) | relative viability ([2]; first compound 0.8 µM) | relative viability ([2]; first compound 2.53 µM) | relative viability ([2]; first compound 8 µM) | relative viability ([3]; first compound 0.08 µM) | relative viability ([3]; first compound 0.253 µM) | relative viability ([3]; first compound 0.8 µM) | relative viability ([3]; first compound 2.53 µM) | relative viability ([3]; first compound 8 µM) | relative viability ([4]; first compound 0.08 µM) | relative viability ([4]; first compound 0.253 µM) | relative viability ([4]; first compound 0.8 µM) | relative viability ([4]; first compound 2.53 µM) | relative viability ([4]; first compound 8 µM)
NCI-H1734 | 0.513 | 0.413 | 0.565 | 0.435 | 0.452 | 0.269 | 0.245 | 0.277 | 0.247 | 0.257 | 0.951 | 0.819 | 0.824 | 1.02 | 0.775 | 0.63 | 0.576 | 0.622 | 0.683 | 0.533
EPLC-272H | 0.328 | 0.271 | 0.265 | 0.225 | 0.265 | 0.247 | 0.231 | 0.297 | 0.181 | 0.153 | 1.32 | 1.09 | 1.04 | 1.35 | 0.927 | 0.88 | 0.729 | 0.746 | 0.903 | 0.636
NCI-H2023 | 0.418 | 0.304 | 0.396 | 0.188 | 0.323 | 0.393 | 0.357 | 0.337 | 0.36 | 0.22 | 0.642 | 0.574 | 0.633 | 0.746 | 0.572 | 0.554 | 0.578 | 0.682 | 0.595 | 0.555
BEN | 0.295 | 0.287 | 0.343 | 0.309 | 0.276 | 0.451 | 0.481 | 0.585 | 0.502 | 0.468 | 1.16 |  | 0.852 | 1.07 | 0.786 | 0.753 |  | 0.822 | 0.929 | 0.832
COR-L 105 | 0.722 | 0.622 | 0.754 | 0.56 | 0.646 | 0.423 | 0.321 | 0.366 | 0.346 | 0.436 | 1.04 | 0.748 | 0.943 | 0.91 | 0.926 | 0.846 | 0.698 | 0.698 | 0.806 | 0.6
ABC-1 | 0.611 | 0.378 | 0.431 | 0.32 | 0.387 | 0.149 | 0.131 | 0.189 | 0.186 | 0.207 | 0.919 | 0.806 | 0.918 | 0.957 | 1.04 | 1.2 | 1.46 | 0.814 | 1.08 | 0.495
HCC-15 | 0.691 | 0.757 | 0.584 | 0.427 | 0.442 | 0.403 | 0.502 | 0.372 | 0.443 | 0.331 | 0.931 | 0.986 | 0.861 | 0.941 | 0.667 | 0.798 | 0.856 | 0.806 | 0.869 | 0.599
PC-3 [JPC-3] | 0.727 | 0.761 | 0.716 | 0.65 | 0.672 | 0.883 | 0.837 | 0.871 | 0.88 | 0.708 | 0.954 | 0.994 | 1 | 0.915 | 0.893 | 0.998 | 0.994 | 0.95 | 0.921 | 0.861
NCI-H1993 | 0.574 | 0.529 | 0.521 | 0.556 | 0.518 | 0.546 | 0.578 | 0.596 | 0.541 | 0.508 | 0.746 | 0.749 | 0.768 | 0.724 | 0.713 | 0.769 | 0.803 | 0.768 | 0.849 | 0.727
NCI-H1944 | 0.442 | 0.343 | 0.376 | 0.26 | 0.341 | 0.263 | 0.242 | 0.235 | 0.225 | 0.234 | 1.08 | 1.19 | 1.09 | 1.17 | 0.904 | 1.09 | 1.16 | 0.931 | 0.996 | 0.714
NCI-H1915 | 0.643 | 0.636 | 0.495 | 0.536 | 0.423 | 0.486 | 0.437 | 0.43 | 0.444 | 0.315 | 1.11 | 1.14 | 1.14 | 1.12 | 0.885 | 0.922 | 0.964 | 0.88 | 0.816 | 0.757
RERF-LC-KJ | 0.58 | 0.582 | 0.555 | 0.407 | 0.508 | 0.455 | 0.537 | 0.441 | 0.493 | 0.457 | 0.869 | 0.814 | 0.855 | 0.909 | 0.883 | 0.803 | 0.787 | 0.785 | 0.85 | 0.786
LOU-NH91 | 0.741 | 0.693 | 0.674 | 0.592 | 0.644 | 0.638 | 0.686 | 0.583 | 0.62 | 0.515 | 0.878 | 0.889 | 0.881 | 1.01 | 0.693 | 0.721 | 0.743 | 0.678 | 0.673 | 0.685
NCI-H2347 | 0.431 | 0.475 | 0.452 | 0.339 | 0.343 | 0.632 | 0.517 | 0.522 | 0.645 | 0.547 | 1.05 | 0.995 | 0.849 | 1 | 0.922 | 0.711 | 0.741 | 0.742 | 0.763 | 0.595
NCI-H2126 | 0.75 | 0.715 | 0.649 | 0.354 | 0.515 | 0.868 | 0.823 | 0.846 | 0.676 | 0.736 | 0.718 | 0.711 | 0.698 | 0.721 | 0.716 | 0.988 | 0.979 | 0.965 | 0.992 | 0.861
HCC-827 | 0.844 | 0.612 | 0.757 | 0.801 | 0.794 | 0.415 | 0.413 | 0.42 | 0.383 | 0.324 | 0.927 | 1 | 0.892 | 0.919 | 0.845 | 0.909 | 0.914 | 0.911 | 0.931 | 0.839
NCI-H3122 | 0.979 | 0.53 | 0.769 | 0.744 | 0.778 | 0.428 | 0.347 | 0.393 | 0.378 | 0.329 | 0.966 | 1.03 | 0.987 | 1.05 | 0.94 | 0.294 | 0.258 | 0.311 | 0.231 | 0.301
HOP-62 | 0.891 | 0.705 | 0.952 | 0.57 | 0.777 | 0.388 | 0.354 | 0.38 | 0.377 | 0.244 | 1.04 | 0.935 | 0.891 | 0.834 | 0.879 | 1.02 | 0.981 | 0.976 | 0.781 | 0.898
HCC-44 | 0.488 | 0.451 | 0.508 | 0.302 | 0.508 | 0.858 | 1.19 | 0.969 | 0.861 | 0.791 | 0.64 | 0.626 | 0.633 | 0.697 | 0.649 | 0.709 | 0.842 | 0.778 | 0.821 | 0.698
